Laboratory results as given in US20140199292A1, “COMPOSITIONS AND METHODS FOR INHIBITING TUMOR DEVELOPMENT CAUSED BY CHEMOTHERAPY INDUCED SENESCENCE” (INSERM (Institut National de la Sante et de la Recherche …, priority 2011, published 2014).

Columns and labels:
IKK2, p53, PARP-1 = experiment: Western blot of 501mel cell extracts (IKK2, p53, poly-(ADP rybosyl)ation); format: cell-based, human
Procedure: Western blots were carried out as previously described (Hilmi et al. 2008). Briefly, cell lysates (30 μg) were separated by SDS-PAGE, transferred on to a PVDF membrane and then exposed to the appropriate antibodies, anti-MITF (Abcam), anti-ERK2 (D-2 Santa Cruz biotechnology), anti-p53 (DO-1, Santa Cruz biotechnology), anti-PARP (Santa Cruz biotechnology), anti-IKK2 and anti-PARP (Cell Signaling Technology Inc.). Horseradish peroxidase-conjugated anti-rabbit or anti-mouse antibodies were from Dakopatts (Glostrup, Denmark). Proteins were visualized with the ECL system (Amersham). The western blots shown are representative of at least 3 independent experiments.

NF-kB = NF-kB luciferase reporter assay in 501mel cells; format: cell-based, human
Procedure: 501mel melanoma cells were transiently transfected as previously described using the lipofectamine reagent (Invitrogen) (Bertolotto et al. 1998). Briefly, cells were transiently transfected with 0.3 μg of NF-kB reporter construct and 0.05 μg pCMVbGal to control the variability in transfection efficiency. The transfection medium was changed 6 hours later and when indicated, cells were transfected as described above with 50 nM of siC or siMi and/or siIKK2 or were exposed to drugs. Cells were assayed for luciferase and b-galactosidase activities 48 hours later. Transfections were repeated at least three times.

CCL2 = CCL2 ELISA in supernatant of MCF7 cells; format: cell-based, human; design: CCL2 secretion of MCF7 cells: dose or concentration left out as unconfirmed; settings: for effect on CCL2 secretion of H2O2-treated senescent MCF7 cells: sulfasalazine 500 μM, 3-AB 20 mM
Source text: CCL2 level in the supernatant of the different melanoma cell lines, in that of MCF7 cells or in that of 501mel cells transfected with siC or siMi for 96 hrs, in presence or absence of drugs, was quantified by ELISA (R&D systems). Results from two independent experiments were normalized to cell number and expressed as ng/ml/10^6 cells.

[1] = tested on: p65/RELA subunit of NF-kB; experiment: Immunofluorescence of p65/RelA localization in melanoma cells; format: cell-based, human; settings: for effect on NF-kB nuclear relocation by MITF-silencing: 3-AB 20 mM, sulfasalazine 500 μM
Procedure: Melanoma cells seeded on glass coverslips in 12-well dishes, were transfected with siC or siMi. When indicated cells were exposed to TNFa (10 ng/ml). Ninety-six hours later, cells were fixed and permeabilized as previously described (Khaled et al. 2003) before being exposed to anti-MITF (Abcam), anti-p65/RelA (Santa Cruz biotechnology), 53BP1 (Bethyl Laboratories) and E-cadherin (BD Transduction Laboratories) antibodies. Cells were washed thrice with PBS, and then incubated for 1 hour with 1:1000 dilution anti-mouse or anti-rabbit Alexa Fluor 488 or Alexa Fluor 594 labeled secondary antibody (Invitrogen, San Diego, Calif., USA) and mounted using Gel/Mount (Biomeda corp., Foster City Calif.). Immunofluorescences were examined and photographed with a Zeiss Axiophot microscope equipped with epifluorescence illumination.

[2] = tested on: MCF7 human breast cancer cells; experiment: Senescence, DNA damage and NF-kB activation of MCF7 cells; format: cell-based
Procedure: (§1) 501mel human melanoma cells and MCF7 human breast cancer cells were grown in DMEM supplemented with 7% FBS at 37° C. in a humidified atmosphere containing 5% CO2. Lipofectamine™ RNAiMAX and opti-MEM medium were purchased from Invitrogen (San Diego, Calif., USA). TNFa and recombinant human CCL2 were from PeproTech Inc (Rocky Hill, N.J.), sulfasalazine and 3-AB from Sigma Chem. Co (St Louis, Mo.), mouse anti-CCL2 from R&D Systems and KU55933 from Calbiochem. The senescence b-galactosidase staining kit from Cell Signaling Technology (Beverly, Mass., USA) was used to histochemically detect b-galactosidase activity at pH6 as previously reported (Giuliano et al. 2010a). The percentage of means and standard deviations were derived from counting 100 cells in duplicate plates after 96 hrs.
We next wondered if a similar PARP-1 and NF-kB-assiocated secretome (PNAS) could be observed in non-melanoma cells that have entered a program of senescence. […] Although CCL2 was not expected to be the major component of MCF7's secretome, CCL2 measurement was used as a readout of its formation. […] Together, our result reveal that PNAS during cellular senescence is a common mechanism that relies on activation of the DNA damages/NF-kB signaling cascade in both melanoma and non-melanoma cell lines.

[3] = tested on: 501mel human melanoma cells; experiment: Senescence of 501mel melanoma cells (morphology, SA-b-Gal staining at pH6); format: cell-based; settings: flattened and enlarged morphology, SA-b-Gal reactivity at pH6
Procedure: as §1

MCF7 cells = experiment: Invasion assay, Boyden chamber, naive MCF7 cells; format: cell-based, human
Procedure: (a) Conditioned media of control or senescent MCF7 (H2O2 treated) were added to the lower compartment of Boyden chambers to assess their chemotactic activity. Cells that had migrated to the underside of the upper compartment were stained 24 hrs later with crystal violet and the number of nuclei was counted using NIH-imageJ analysis software. Values represent mean+SD of three independent experiments. (b) ELISA test of CCL2 level in the conditioned media of control MCF7 or MCF7 incubated with H2O2 ([…]) and when indicated with sulfasalazine (500 μM) or 3-AB (20 mM). Data are represented as mean+SD.
(§2) Cell invasion was assessed using a modified Boyden chamber assay with […] pore filter inserts for 24-well plates (BD Bioscience). 501mel cells were seeded on the upper chamber of matrigel-coated trans-well and chemoattractants (conditioned media or recombinant molecules) placed into the lower chamber. Twenty-four hours later, cells adherent to the underside of the filters were fixed with 4% PFA, stained with 0.4% crystal violet and five random fields at ×20 magnification were counted. Results represent the average of triplicate samples from three independent experiments.

MITF = settings: Mhaidat et al. 2007; Liu et al. 2009; cited from earlier work
501mel cells = experiment: Invasion assay, matrigel-coated modified Boyden chamber, naive 501mel cells; format: cell-based, human; settings: recombinant CCL2 100 ng/ml as chemoattractant
Procedure: as §2

[4] = 3-AB 20 mM, sulfasalazine 500 μM

Compound: NC(=O)c1cccc(N)c1 [3-AB, 3-aminobenzamide]
- effect on p53 up-regulation mediated by MITF silencing (IKK2, p53, PARP-1; western blot): almost completely abrogated
- effect on NF-kB transcriptional activity stimulated by oxidative stress and chemotherapeutic drugs (NF-kB; 3-AB 20 mM, FMT 40 mM, TMZ 900 nM, H2O2 100 mM): prevented
- effect on stimulation of NF-kB transcriptional activity by MITF-silencing (NF-kB; [4]): no longer able
- effect on CCL2 secretion of H2O2-treated senescent MCF7 cells (CCL2): impaired
- effect on NF-kB nuclear relocation by MITF-silencing [1]: no longer able to relocate NF-kB to the nucleus

Compound: OO [H2O2]
- DNA damage in MCF7 cells (gH2AX labeling) [2]: DNA damage induction
- NF-kB activity in MCF7 cells (nuclear localization of p65/RELA) [2]: stimulation of NF-kB activity
- senescence of MCF7 cells ([2]; morphological changes, SA-b-galactosidase, p53 and p21): underwent senescence
- senescence of melanoma cells [3]: underwent premature senescence
- invasion of naive MCF7 cells toward supernatant of treated (senescent) MCF7 (MCF7 cells): enhanced the invasion of naïve MCF7 cells
- MITF expression (MITF): decreased the expression of MITF
- poly-(ADP rybosyl)ation in melanoma cells (IKK2, p53, PARP-1): increased poly-(ADP rybosyl)ation
- CCL2 secretion of MCF7 cells (CCL2; H2O2): resulted in CCL2 secretion

Compound: CCOP(=O)(OCC)C(C)NC(=O)N(CCCl)N=O (centres unmarked) [fotemustine]
- senescence of melanoma cells [3]: extended these findings

Compound: O=C(O)c1cc(/N=N/c2ccc(S(=O)(=O)Nc3ccccn3)cc2)ccc1O [sulfasalazine]
- effect on IKK2 up-regulation mediated by MITF silencing (IKK2, p53, PARP-1; western blot): abrogated
- effect on p53 up-regulation mediated by MITF silencing (IKK2, p53, PARP-1; western blot): modestly affected
- effect on stimulation of NF-kB transcriptional activity by MITF-silencing (NF-kB; [4]): no longer able
- effect on activation of the NF-kB reporter gene by siMITF or TNFa (NF-kB; sulfasalazine 500 μM, siIKK2 co-knockdown): prevented activation of the NF-kB reporter gene
- effect on CCL2 secretion of H2O2-treated senescent MCF7 cells (CCL2): impaired
- effect on NF-kB nuclear relocation by MITF-silencing [1]: no longer able to relocate NF-kB to the nucleus

Compound: CCL2: recombinant human CCL2 from PeproTech, chemokine
- invasive capability of naive 501mel cells (501mel cells): stimulated the invasive capability

Compound: TNFa
- NF-kB transcriptional activity (luciferase reporter) (NF-kB; 501mel cells, TNFα 10 ng/ml, FMT 40 mM, TMZ 900 nM, H2O2 100 mM): up-regulated
- cellular localization of p65/RELA ([1]; TNFa 10 ng/ml): p65 relocalized to the nucleus
